Test results taken from patent US10172835B2, “Anticancer agent composition” (J-Pharma Co., Ltd., priority 2014, dated 2019).
Counter-ions that a name gives are not always drawn.

Key:
[1] = system: 44As3-11 cell derived from human scirrhous stomach cancer; assay: MTT, single agents and combination with COM-JP, 44As3-11 cells; assay type: cell-based
Experimental: (§1) Two kind of cancer cells of a 44As3-11 cell derived from human scirrhous stomach cancer and a Panc-1 cell derived from human pancreatic cancer were cultured in the presence or absence of COM-JP, to which GEM and Pac was added on day 2, and the resultant mixture was continued to be cultured for 2 hours. Subsequently, the medium was replaced with a new medium, and the culture was performed in the presence or absence of COM-JP for 2 days more. Finally, the cells were collected, and the quantity of survival activity of the cells was determined by a MTT method. In each experiment, three cases of the group under the same conditions were measured, and the average value and the standard error, and the p-value of significance test were shown in the diagram.

[2] = system: Panc-1 cell derived from human pancreatic cancer; assay: MTT, single agents and combination with COM-JP, Panc-1 cells; assay type: cell-based
Experimental: as §1

mTORC1 / Akt activation = assay: Western blot of S6RP, 4EBP1 and Akt phosphorylation, KO99L cells; assay type: cell-based, murine; settings: 2.0-24 h; COMPOUND-JP 10.0 μM; MK-2206 5.0 μM; KU0063794 5.0 μM; rapamycin 10.0 nM; L-Asp, Erw 2.5 units/ml; velcade at 24 h
c-myc = assay: Western blot of c-myc levels, KO99L cells; assay type: cell-based, murine; settings: COMPOUND-JP 10.0 μM 2.0-24 h; Velcade 8 nM 24 h; KU0063794 10.0 μM; MK-2206 10.0 μM; rapamycin 100 nM
Experimental: (§2) Cell extracts were prepared using a cell lysis buffer (50 mM HEPES, pH 7.4, 150 mM NaCl, 20 mM EDTA, 100 mM NaF, 10 mM Na3VO4, 0.5% nonyl phenoxypolyethoxylethanol (NP40) supplemented with a cocktail of protease inhibitors. After SDS-PAGE separation and transfer to nitrocellulose immunoblotting was performed using the following antibodies against: Akt (Cell Signaling Technologies, #9272), CHOP (#2895), cleaved caspase 3 (#9664), c-Myc (#9402), eIF2a (#9721), 4EBP1 (#9644), LC3A/B (#12741), PARP (#9542), pJnk (T183/Y185) (#9251), pSer235-236-S6RP (#4856), pSer473-Akt (#9271), pSer65-4EBP1 (#9451) and S6RP (#2217); Bax (Sigma-Aldrich, B8429); PUMA (Abcam, ab54288); Bak (Millipore, 06536); ATF4 (Santa Cruz Biotechnologies, sc200), GADD34 (sc8327), Hsp60 (sc-1722), Hsp90 (sc-13119) and XBP1 (sc-7160); ATF6 (Imgenex, IMG-273).

CHOP = assay: Western blot of CHOP protein levels, KO99L cells; assay type: cell-based, murine; settings: for CHOP induction: FIG. 5B, COMPOUND-JP 5.0 and 10.0 μM, L-Asp 2.5 units/ml, rapamycin 10.0 nM, MK-2206 10.0 μM, KU0063794 10.0 μM; for CHOP expression, time course: FIG. 5A, COMPOUND-JP 10.0 μM, L-Asp, Erw 2.5 units/ml, 2.0-24 h
Experimental: as §2

[3] = system: KO99L cells (tPTEN−/− tumor cell line); assay: WST-1 cell viability assay on KO99L cells; assay type: cell-based, murine; settings: Mus musculus, KO99L cells, 48 h
Experimental: Two different assays were employed: i) In a 96-well plate format, cells (4.0±0.1×10^4 per well; 100 μL) were incubated with effectors (48 h, 37° C.; n=4 per experiment) and then WST-1 reagent (10 μL; Roche Diagnostics) added to each well of 96-well plates, incubated, and the formazan production was measured at 490 nm; and ii) cells (2.0±0.1×10^4 per well; 100 μL) were incubated with effectors (48 h, 37° C.; n=4 per experiment) and then bromodeoxyuridine reagent (10 μL/well; Roche Diagnostics) was added to each well and incubated (8 h, 37° C.). The cells were then fixed, denatured and incubated with anti-BrdU-conjugated with peroxidase (POD) antibody (100 μL/well). Colorimetric substrate (TMB: tetramethyl-benzidine; 100 μL/well) was added and BrdU incorporation quantified via optical density measurement (450 nm) which corresponds to DNA synthesis and proliferating cells.

KO99L cells = assay: Combination studies with COMPOUND-JP, WST-1 viability, Chou-Talalay combination index; assay type: cell-based, murine; settings: 48 h, suboptimal concentrations, in combination with COMPOUND-JP
[4] = system: HT-29 cell derived from human large intestine cancer; assay: Tumor growth in nude mouse SOI model (HT-29 grafted onto wall of large intestine); assay type: in vivo
From the text: […] was expressed in a HT-29 cell derived from human large intestine cancer, and which was grafted onto the wall of large intestine of a mouse to produce a metamouse. According to this, the quantity of the size of the tumor could be determined with time with emission intensity. In FIG. 16, the size of tumor in each treatment group was shown with a bar graph. Group 1 is a control group, Groups 2 to 4 are a group in which COM-JP was intraperitoneally administered alone at 3.1, 12.5, and 50 mg/kg weight/day every day for 4 weeks, Group 5 is a group in which CDDP was intraperitoneally administered alone at 2.5 mg/kg/day three times on day 0, day 6, and day 13, Groups 6 to 8 are a group in which Groups 2 to 4 and Group 5 were combined to be administered in combination, and Group 9 is a group in which COM-JP was orally administered at 300 mg/kg/day every day for 4 weeks.

**Q.** `Nc1ccn([C@@H]2O[C@H](CO)[C@@H](O)C2(F)F)c(=O)n1` [gemstabine, gemcitabine] was tested. Which “inhibitory effect of combination with COM-JP (15 μM)” value (shortened to “inhibitory effect of combination”) [1] did it give?
**A.** additive effect

**Q.** And the “proliferation activity, agent used alone for 2 hours” value (“proliferation activity” for short) [1]?
**A.** decreased in a dose-dependent manner

**Q.** And the “inhibitory effect of combination” value [2]?
**A.** additive effect

**Q.** And the “proliferation activity” value [2]?
**A.** decreased in a dose-dependent manner

**Q.** What about the “relative inhibitory effect of single agents” value (“relative inhibitory effect” below) [2] of the same molecule?
**A.** extremely small

**Q.** How did the 4EBP1 phosphorylation (mTORC1 / Akt activation) turn out when `NC1(c2ccc(-c3nc4ccn5c(=O)[nH]nc5c4cc3-c3ccccc3)cc2)CCC1` [MK-2206, reference compound] was run?
**A.** completely block

**Q.** What about the “Akt phosphorylation (serine 473) / activation” value (mTORC1 / Akt activation) of the same molecule?
**A.** completely block

**Q.** What about the “S6RP phosphorylation (mTORC1 activation)” value (mTORC1 / Akt activation) of the same molecule?
**A.** completely block

**Q.** And the c-myc protein level (c-myc)?
**A.** dramatic disappearance of all three c-myc isoforms

**Q.** And the CHOP induction (CHOP)?
**A.** did not result in CHOP induction

**Q.** Which “inhibitory effect of combination” value [1] does the source give for `CC(=O)O[C@H]1C(=O)[C@@]2(C)[C@H]([C@H](OC(=O)c3ccccc3)[C@]3(O)C[C@H](OC(=O)[C@H](O)[C@@H](NC(=O)c4ccccc4)c4ccccc4)C(C)=C1C3(C)C)[C@]1(OC(C)=O)CO[C@@H]1C[C@@H]2O` [paclitaxel] here?
**A.** additive effect

**Q.** What about the “proliferation activity” value [1] of the same molecule?
**A.** decreased in a dose-dependent manner

**Q.** And the “relative inhibitory effect” value [1]?
**A.** stronger than that of gemstabine

**Q.** And the “inhibitory effect of combination” value [2]?
**A.** additive effect

**Q.** And the “proliferation activity” value [2]?
**A.** decreased in a dose-dependent manner

**Q.** What about the “relative inhibitory effect” value [2] of the same molecule?
**A.** stronger than that of gemstabine

**Q.** `CC(C)C[C@@H](N)C(=O)O` [D-Leucine, D-leucine, reference compound] was tested. Which viability at 30000 µM ([3]; 30.0 mM) did it give?
**A.** 60%

**Q.** How did the “combination effect with COMPOUND-JP on metabolic activity/cell survival (Combination Index)” value (KO99L cells) turn out when `COc1cccc2c1C(=O)c1c(O)c3c(c(O)c1C2=O)C[C@@](O)(C(=O)CO)C[C@@H]3O[C@H]1C[C@H](N)[C@H](O)[C@H](C)O1` [doxorubicin, doxorubicin hydrochloride] was run?
**A.** synergy

**Q.** With `NC1(C(=O)O)CC2CCC1C2` (centres unmarked) [BCH, 2-Aminobicyclo-(2,2,1)-heptane-2-carboxylic acid, reference compound] as the molecule, how does the viability at 10000 µM ([3]; 10.0 mM) read?
**A.** 30%

**Q.** What does the source list for `COc1ccc(-c2ccc3c(N4CCOCC4)nc(N4C[C@@H](C)O[C@@H](C)C4)nc3n2)cc1CO` [KU0063794, rel-5-[2-[(2R,6S)-2,6-dimethyl-4-morpholinyl]-4-(4-morpholinyl)pyrido[2,3-d]pyrimidin-7-yl]-2-methoxybenzenemethanol, reference compound]?
**A.** 4EBP1 phosphorylation (mTORC1 / Akt activation): completely block; Akt phosphorylation (serine 473) / activation (mTORC1 / Akt activation): completely block; S6RP phosphorylation (mTORC1 activation) (mTORC1 / Akt activation): completely block; c-myc protein level (c-myc): slightly influenced the two lower bands; CHOP induction (CHOP): did not result in CHOP induction; combination effect with COMPOUND-JP on metabolic activity/cell survival (Combination Index) (KO99L cells): less efficient

**Q.** How did the “efficacy on tumor growth, single administration” value ([4]; COM-JP i.p. 3.1, 12.5, 50 mg/kg/day 4 weeks, CDDP i.p. 2.5 mg/kg/day day 0, 6, 13) turn out when `[NH2][Pt]([NH2])([Cl])[Cl]` [CDDP, cisplatin, reference compound] was run?
**A.** not recognized

**Q.** What about the “efficacy of combination with COM-JP on tumor growth” value ([4]; Group 8: COM-JP 50 mg/kg/day i.p. plus CDDP 2.5 mg/kg/day) of the same molecule?
**A.** synergistic effect

**Q.** Which 4EBP1 phosphorylation (mTORC1 / Akt activation) does the source give for `CC(C)C[C@H](NC(=O)[C@H](Cc1ccccc1)NC(=O)c1cnccn1)B(O)O` [velcade, bortezomib, reference compound] here?
**A.** completely abolished

**Q.** And the “Akt phosphorylation (serine 473) / activation” value (mTORC1 / Akt activation)?
**A.** completely abolished

**Q.** What about the “S6RP phosphorylation (mTORC1 activation)” value (mTORC1 / Akt activation) of the same molecule?
**A.** completely abolished

**Q.** What about the c-myc protein level (c-myc) of the same molecule?
**A.** Analogous observations

**Q.** And the CHOP induction (CHOP)?
**A.** strongly induced

B1: L-Asp: enzyme that can degrade extracellular asparagine and also possesses glutaminase activity (protein, UniProt P00805 23-348, looked up)
L-asparaginase 2: LPNITILATGGTIAGGGDSATKSNYTVGKVGVENLVNAVPQLKDIANVKGEQVVNIGSQDMNDNVWLTLAKKINTDCDKTDGFVITHGTDTMEETAYFLDLTVKCDKPVVMVGAMRPSTSMSADGPFNLYNAVVTAADKASANRGVLVVMNDTVLDGRDVTKTNTTDVATFKSVNYGPLGYIHNGKIDYQRTPARKHTSDTPFDVSKLNELPKVGIVYNYANASDLPAKALVDAGYDGIVSAGVGNGNLYKSVFDTLATAAKTGTAVVRSSRVPTGATTQDAEVDDAKYGFVASGTLNPQKARVLLQLALTQTKDPQQIQQIFNQY
**Q.** Which results are given for B1?
**A.** 4EBP1 phosphorylation (mTORC1 / Akt activation): altered 4EBP1 phosphorylation; Akt phosphorylation (serine 473) / activation (mTORC1 / Akt activation): did not significantly influence Akt phosphorylation; S6RP phosphorylation (mTORC1 activation) (mTORC1 / Akt activation): altered S6RP phosphorylation; CHOP expression, time course (CHOP): lower magnitude compared to COMPOUND-JP; combination effect with COMPOUND-JP on metabolic activity/cell survival (Combination Index) (KO99L cells): potentiate

B2: Erw: enzyme that can degrade extracellular asparagine, with higher glutaminase activity (protein, UniProt P06608 22-348, looked up)
L-asparaginase: ADKLPNIVILATGGTIAGSAATGTQTTGYKAGALGVDTLINAVPEVKKLANVKGEQFSNMASENMTGDVVLKLSQRVNELLARDDVDGVVITHGTDTVEESAYFLHLTVKSDKPVVFVAAMRPATAISADGPMNLLEAVRVAGDKQSRGRGVMVVLNDRIGSARYITKTNASTLDTFKANEEGYLGVIIGNRIYYQNRIDKLHTTRSVFDVRGLTSLPKVDILYGYQDDPEYLYDAAIQHGVKGIVYAGMGAGSVSVRGIAGMRKAMEKGVVVIRSTRTGNGIVPPDEELPGLVSDSLNPAHARILLMLALTRTSDPKVIQEYFHTY
**Q.** What does the source list for B2?
**A.** 4EBP1 phosphorylation (mTORC1 / Akt activation): altered 4EBP1 phosphorylation; Akt phosphorylation (serine 473) / activation (mTORC1 / Akt activation): did not significantly influence Akt phosphorylation; S6RP phosphorylation (mTORC1 activation) (mTORC1 / Akt activation): altered S6RP phosphorylation; CHOP expression, time course (CHOP): induced a transient response
